“Also recorded” adds a separate entry of the source.
Assays:
[1] = target: T1, human recombinant PTP1B (1–302) (Homo sapiens, UniProt P18031); experiment: PTP1B enzymatic assay (p-NPP hydrolysis; preliminary screening and IC50); assay type: biochemical; settings: for Effect on PTP1B activity in preliminary screening: 20 µM of each compound, 30 min; for IC50: 2.5 mM p-NPP, pH 7.0, 37 °C, mean ± SD (n = 3), read-out: IC50 values determined on PTP1B
T1 construct: human recombinant PTP1B (1–302)
T1 sequence (P18031 1-302): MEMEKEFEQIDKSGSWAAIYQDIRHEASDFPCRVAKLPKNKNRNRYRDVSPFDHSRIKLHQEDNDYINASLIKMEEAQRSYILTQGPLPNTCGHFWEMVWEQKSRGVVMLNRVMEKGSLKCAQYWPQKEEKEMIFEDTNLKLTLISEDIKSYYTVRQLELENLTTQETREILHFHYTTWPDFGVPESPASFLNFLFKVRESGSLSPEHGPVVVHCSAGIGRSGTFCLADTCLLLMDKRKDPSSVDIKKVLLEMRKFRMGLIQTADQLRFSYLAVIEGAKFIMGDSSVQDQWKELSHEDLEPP
Experimental: We performed enzymatic assays as previously described. For each assay, an aliquot of human recombinant PTP1B (1–302) was added in the assay buffer (0.075 M β,β-dimethylglutarate pH 7.0 containing 1 mM EDTA, 0.1 mM DTT and a p-nitrophenylphosphate (p-NPP) (Chemcruz, Santa Cruz Biotechnology (Santa Cruz, CA, USA)). The reactions were performed at 37 °C in a final volume of 1 mL. After adequate time (30 min) of incubation, the reactions were stopped adding 2 mL of 0.1 M KOH in each sample. The released amount of p-nitrophenol, product of the reaction, was determined by measuring the absorbance at 400 nm in a 1 cm pathlength cuvette.
The IC50 value of compounds against PTP1B was determined by measuring the hydrolysis rate of the enzyme in the presence of a fixed substrate concentration (2.5 mM p-NPP) and increasing inhibitor concentrations (generally 14–16 different concentrations). Each test was carried out in triplicate. Experimental data were normalized respect to control samples and then fitted using a non-linear fitting software, using the following equation: Vi/V0=Max−Min/1+x/IC50^slope+Min where the Vi/V0 value represents the relative activity calculated in presence of each inhibitor concentration; the maximum and minimum value of the activity are represented by “Max” and “Min”, respectively; “x” is the concentration of the inhibitor; IC50 is the inhibitor concentration able to decrease the enzymatic activity up to 50%; “slope” represents the slope of the curve in the transition zone.
Figure 2 Preliminary screening assay on PTP1B. All assays were started by diluting an aliquot of PTP1B in the assay solution containing substrate alone (control test) or substrate and an aliquot of each compound (20 µM, final concentration). After 30 min, the reactions were stopped by adding a concentrated KOH solution. The enzyme activity was determined by measuring the amount of p-nitrophenol that was released in each sample using a spectrophotometer. Data obtained were normalized respect to control sample. […] Statistical analysis was carried out using one way ANOVA followed by Tukey’s HSD test for pairwise comparisons. Statistics have been drawn on raw data and compare samples to control (Ctr). * p < 0.05; ** p < 0.01.
Figure 3 Determination of the IC50 values with compounds 3, 8a, 8b, 9a and 9b. An aliquot of PTP1B enzyme was diluted in the presence of increasing concentration of the compounds. The activity of PTP1B was determined by measuring the absorbance of the sample at 400 nm, using a spectrophotometer. Data obtained were normalized respect to the control sample and analysed using a non-linear fitting software.

PTP1B = target: T2, PTP1B (Homo sapiens, UniProt P18031); experiment: Dilution (reversibility) assay with PTP1B; assay type: biochemical; settings: 50 µM, 1 h at 37 °C, then diluted 500 fold
T2 construct: human recombinant PTP1B (1–302)
T2 sequence (P18031 1-302): T1 sequence (P18031 1-302)
Experimental: A dilution test was carried out to evaluate if the compound behaves as reversible or irreversible inhibitor of PTP1B. Briefly, an aliquot of the enzyme was diluted with different concentration of inhibitor and the samples incubated at 37 °C for 1 h. After this time, an aliquot of these samples was diluted 500 times in the assay buffer containing 2.5 mM p-NPP, to evaluate whether the enzyme is able to recover its activity since the final concentration of inhibitor is now far away from its IC50 value. Control test was carried out diluting the enzyme with an equal volume of deionised water. All tests were performed in triplicate.
Figure 4 Dilution assay. To evaluate the mechanism of action of the compounds, a reversibility assay was carried out. The PTP1B was incubated in the presence of the saturating concentration of each compound (50 µM) for 1 h at 37 °C. Then, an aliquot of enzyme was diluted 500 folds in the assay buffer to evaluate the residual activity of the enzyme. Tests were carried out in triplicate. Data represent the mean value ± SD.

C2C12 cells = experiment: Insulin signalling pathway analysis (western blot of pIR and pAkt); assay type: cell-based, murine; settings: for Effect on insulin signalling pathway: differentiated C2C12 cells
Experimental: C2C12 cells were plated on P35 dishes, grown until 80% confluence and then incubated in the presence of differentiation medium (DMEM-high glucose (4500 mg/L) supplemented with 2% Horse serum (HS, Euroclone), 2 mM glutamine, 100 U/mL penicillin, and 100 μg/mL streptomycin) for 4 days. After this time, cell plates were washed with PBS and cells stimulated with 10 nM insulin, compound 3 or insulin-compound 3 combination for 30 min. After cell plates were washed with cold PBS solution and lysed using 1X Leammli sample buffer. Samples were store at 4 °C for 15 min and then protein solutions were collected and boiled for 5 min. Proteins were analysed by SDS-PAGE and then transferred on a PVDF membrane by western blot. Phosphorylation status of insulin receptor and the kinase Akt was evaluated using specific antibodies (pIR β subunit, Y1162/1163 (sc-25103-R) and β-actin, clone C-4 (sc-47778) were from Santa Cruz Biotechnology (Santa Cruz, CA, USA); IR β subunit, clone CT-3 (MABS65) was from Merck-Millipore (Burlington, MA, USA). Akt (9272S) and p-Akt (9271S) antibodies were from Cell Signalling Technology (Danvers, MA, USA). Secondary antibodies were from Santa Cruz Biotechnology (Santa Cruz, CA, USA). Detection was performed using Clarity western ECL substrates (Bio-Rad Laboratories, Inc.).
Figure 12 Effect of compound 3 on insulin signalling pathway. C2C12 cells were incubated with compound 3 (20 µM final concentration) for 30 min, in the presence or not of insulin (10 nM). After that, cells were lysed, and cellular extracts were analysed to evaluate the phosphorylation status of IR and Akt. (A), western blot image; (B,C), quantitation of western blot carried out using Kodak MI software. Data were normalized respect to control sample. All tests were carried out in triplicate. Ctr: control experiment; Ins: cells treated with 10 nM insulin; 3: cells treated with compound 3 (20 µM); 3 + Ins, cells treated with insulin and compound 3. Statistical analysis was carried out using one way ANOVA followed by Tukey’s HSD test for pairwise comparisons. * p < 0.05.

[2] = 20 µM compound + 10 nM insulin, versus insulin alone
[3] = 20 µM compound alone, 30 min, versus control cells

Effect on PTP1B activity in preliminary screening [1] | IC50 [1] | Reversibility of PTP1B inhibition (PTP1B) | Structure (SMILES) | Phosphorylation level of Akt (C2C12 cells; [2]) | Phosphorylation level of insulin receptor (IR) (C2C12 cells; [2]) | Phosphorylation level of Akt (C2C12 cells; [3]) | Phosphorylation level of insulin receptor (IR) (C2C12 cells; [3]) | Effect on insulin signalling pathway (C2C12 cells)
reducing PTP1B activity | 6.7 ± 3.3 µM | reversible inhibitors | CCCCCCCCCCCCCCC(OP(=O)(O)O)C(O)CCCO (stereo not drawn) [Compound 3] | not statistically different | not statistically different | increased with respect to control cells | increased with respect to control cells | acts as an insulin-mimetic agent; also recorded: evident insulin-mimetic activity
reducing PTP1B activity | 16 ± 2 µM | reversible inhibitors | CCCCC[C@@H](OP(=O)(O)O)[C@@H](O)CC[C@H](CCCC)OC(C)=O (relative stereo) [Compound 8a] |  |  |  |  | did not improve the insulin signalling pathway; also recorded: completely inactive

Source: PMC8950868, “Identifying Human PTP1B Enzyme Inhibitors from Marine Natural Products: Perspectives for Developing of Novel Insulin-Mimetic Drugs” (Pharmaceuticals, 2022)
